Source: ChEMBL document CHEMBL4000220, “Optimization of spirocyclic proline tryptophan hydroxylase-1 inhibitors” (Bioorg Med Chem Lett, 2017)
Activity calls are given as the source filed them. The calls are words filed in the database; no cut-off is given here.

How the values were obtained:
[1] = target: T1, Tryptophan 5-hydroxylase 1 (Homo sapiens, UniProt P17752)
T1 sequence (P17752 whole entry): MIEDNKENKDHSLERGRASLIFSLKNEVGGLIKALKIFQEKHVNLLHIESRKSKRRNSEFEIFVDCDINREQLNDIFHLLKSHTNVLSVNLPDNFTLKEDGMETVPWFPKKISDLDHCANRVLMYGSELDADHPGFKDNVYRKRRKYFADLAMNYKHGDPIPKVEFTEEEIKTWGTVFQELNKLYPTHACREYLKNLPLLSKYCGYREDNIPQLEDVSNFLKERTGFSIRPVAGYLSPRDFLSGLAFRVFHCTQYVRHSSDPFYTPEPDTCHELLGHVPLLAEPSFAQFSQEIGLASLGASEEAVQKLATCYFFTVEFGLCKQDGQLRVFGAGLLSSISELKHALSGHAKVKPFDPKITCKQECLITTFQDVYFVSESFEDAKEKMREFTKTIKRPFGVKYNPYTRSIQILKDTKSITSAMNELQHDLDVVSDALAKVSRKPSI
Description: Inhibition of TPH1 (unknown origin)

[2] = tested on: Mus musculus; test: Drug level in mouse treated with (S)-ethyl 8-(2-amino-6-((R)-1-(5-chloro-3',5'-difluorobiphenyl-2-yl)-2,2,2-trifluoroethoxy)pyrimidin-4-yl)-2,8-diazaspiro[4.5]decane-3-carboxylate at 10 to 50 mg/kg, po administered as single dose; assay type: ADME, organism-based; details: in vivo
[3] = tested on: Mus musculus; test: In vivo inhibition of TPH1 in mouse assessed as reduction in 5-HT level in intestinal mucosa at 50 mg/kg, po administered daily as single dose relative to control; assay type: functional
[4] = Drug level in rat hepatocytes treated with ethyl 8-(2-amino-6-((R)-1-(4-chloro-2-(3-methyl-1H-pyrazol-1-yl)phenyl)-2,2,2-trifluoroethoxy)pyrimidin-4-yl)-2,8-diazaspiro[4.5]decane-3-carboxylate; assay type: ADME, cell-based, Hepatocyte
[5] = tested on: Mus musculus; test: Drug level in mouse treated (S)-ethyl 8-(2-amino-6-((R)-1-(5-chloro-3'-fluorobiphenyl-2-yl)-2,2,2-trifluoroethoxy)pyrimidin-4-yl)-2,8-diazaspiro[4.5]decane-3-carboxylate at 10 to 50 mg/kg, po administered as single dose; assay type: ADME, organism-based; details: in vivo
[6] = tested on: Mus musculus; test: Drug level in mouse treated with (S)-ethyl 8-(2-amino-6-((R)-1-(5-chloro-3'-methylbiphenyl-2-yl)-2,2,2-trifluoroethoxy)pyrimidin-4-yl)-2,8-diazaspiro[4.5]decane-3-carboxylate at 10 to 50 mg/kg, po administered as single dose; assay type: ADME, organism-based; details: in vivo
[7] = tested on: Mus musculus; test: Drug level in mouse treated with (S)-ethyl 8-(2-amino-6-((R)-1-(3'-tert-butyl-5-chlorobiphenyl-2-yl)-2,2,2-trifluoroethoxy)pyrimidin-4-yl)-2,8-diazaspiro[4.5]decane-3-carboxylate at 10 to 50 mg/kg, po administered as single dose; assay type: ADME, organism-based; details: in vivo
[8] = tested on: Mus musculus; test: Drug level in mouse treated with (S)-ethyl 8-(2-amino-6-((R)-1-(5-chloro-3'-(trifluoromethyl)biphenyl-2-yl)-2,2,2-trifluoroethoxy)pyrimidin-4-yl)-2,8-diazaspiro[4.5]decane-3-carboxylate at 10 to 50 mg/kg, po administered as single dose; assay type: ADME, organism-based; details: in vivo

Compound	IC50 [1] [nM]	inhibition [3]	other results
Nc1nc(O[C@H](c2ccc(Cl)cc2-c2cc(F)cc(F)c2)C(F)(F)F)cc(N2CCC3(CC2)CN[C@H](C(=O)O)C3)n1	22	–	Drug metabolism [2]: Metabolite_Detected
Nc1nc(O[C@H](c2ccc(Cl)cc2-n2ccc(C(=O)O)n2)C(F)(F)F)cc(N2CCC3(CC2)CNC(C(=O)O)C3)n1 (some centres undefined)	–	–	Drug metabolism [4]: Metabolite_Detected
CCOC(=O)[C@@H]1CC2(CCN(c3cc(O[C@H](c4ccc(-c5ccc6nc(SC)ccc6c5)cc4)C(F)(F)F)nc(N)n3)CC2)CN1	–	inactive	–
CCOc1ccc(-c2cc(Cl)ccc2[C@@H](Oc2cc(N3CCC4(CC3)CN[C@H](C(=O)O)C4)nc(N)n2)C(F)(F)F)cc1Cl	207	–	–
CCOC(=O)[C@@H]1CC2(CCN(c3cc(O[C@H](c4ccc(-c5ccc6ncc(F)cc6c5)cc4)C(F)(F)F)nc(N)n3)CC2)CN1	–	inactive	–
NC(=O)c1cccc(-c2cc(Cl)ccc2[C@@H](Oc2cc(N3CCC4(CC3)CN[C@H](C(=O)O)C4)nc(N)n2)C(F)(F)F)c1	40	–	–
CCOC(=O)[C@@H]1CC2(CCN(c3cc(O[C@H](c4ccc(-c5ccc6c(C)nn(C)c6c5)cc4)C(F)(F)F)nc(N)n3)CC2)CN1	–	inactive	–
Nc1nc(O[C@H](c2ccc(Cl)cc2-c2cccc(F)c2)C(F)(F)F)cc(N2CCC3(CC2)CN[C@H](C(=O)O)C3)n1	32	–	Drug metabolism [5]: Metabolite_Detected
Cc1ccn(-c2cc(-c3ccc(C)c(C)c3)ccc2[C@@H](Oc2cc(N3CCC4(CC3)CN[C@H](C(=O)O)C4)nc(N)n2)C(F)(F)F)n1	20	–	–
Cc1cccc(-c2cc(Cl)ccc2[C@@H](Oc2cc(N3CCC4(CC3)CN[C@H](C(=O)O)C4)nc(N)n2)C(F)(F)F)c1	26	–	Drug metabolism [6]: Metabolite_Detected
Nc1nc(O[C@H](c2ccc(Cl)cc2-n2ccc(CO)n2)C(F)(F)F)cc(N2CCC3(CC2)CNC(C(=O)O)C3)n1 (some centres undefined)	–	–	Drug metabolism [4]: Metabolite_Detected
CCOC(=O)[C@@H]1CC2(CCN(c3cc(O[C@H](c4ccc(-c5ccc(Cl)c(Cl)c5)cc4-n4ccc(C)n4)C(F)(F)F)nc(N)n3)CC2)CN1	–	–	inhibition in vivo at 50 mg/kg [3]: 60%
CCOC(=O)[C@@H]1CC2(CCN(c3cc(O[C@H](c4ccc(-c5ccc(OC)cc5)cc4-n4ccc(C)n4)C(F)(F)F)nc(N)n3)CC2)CN1	–	–	inhibition in vivo at 50 mg/kg [3]: 46%
CCOC(=O)[C@@H]1CC2(CCN(c3cc(O[C@H](c4ccc(-c5ccc6c(C)n(C)nc6c5)cc4)C(F)(F)F)nc(N)n3)CC2)CN1	–	inactive	–
CCOC(=O)[C@@H]1CC2(CCN(c3cc(O[C@H](c4ccc(Cl)cc4-n4ccc(C)n4)C(F)(F)F)nc(N)n3)CC2)CN1	–	–	inhibition in vivo at 50 mg/kg [3]: 61%
Nc1nc(O[C@H](c2ccc(Cl)cc2-c2cccc(N3CCCC3=O)c2)C(F)(F)F)cc(N2CCC3(CC2)CN[C@H](C(=O)O)C3)n1	77	–	–
Nc1nc(O[C@H](c2ccc(Cl)cc2-c2cccc(Cl)c2)C(F)(F)F)cc(N2CCC3(CC2)CN[C@H](C(=O)O)C3)n1	30	–	–

Compound	IC50 [1] [nM]	inhibition [3]	other results
CCOC(=O)[C@@H]1CC2(CCN(c3cc(O[C@H](c4ccc(-c5ccc6cnccc6c5)cc4)C(F)(F)F)nc(N)n3)CC2)CN1	–	inactive	–
Nc1nc(O[C@H](c2ccc(Cl)cc2-c2ccc(F)c(F)c2)C(F)(F)F)cc(N2CCC3(CC2)CN[C@H](C(=O)O)C3)n1	35	–	–
N#Cc1cccc(-c2cc(Cl)ccc2[C@@H](Oc2cc(N3CCC4(CC3)CN[C@H](C(=O)O)C4)nc(N)n2)C(F)(F)F)c1	30	–	–
CN(C)S(=O)(=O)c1cccc(-c2cc(Cl)ccc2[C@@H](Oc2cc(N3CCC4(CC3)CN[C@H](C(=O)O)C4)nc(N)n2)C(F)(F)F)c1	53	–	–
CCOC(=O)[C@@H]1CC2(CCN(c3cc(O[C@H](c4ccc(-c5ccc6c(c5)CCN(C)C6=O)cc4)C(F)(F)F)nc(N)n3)CC2)CN1	–	inactive	–
CC(C)(C)c1cccc(-c2cc(Cl)ccc2[C@@H](Oc2cc(N3CCC4(CC3)CN[C@H](C(=O)O)C4)nc(N)n2)C(F)(F)F)c1	23	–	Drug metabolism [7]: Metabolite_Detected
CCOC(=O)[C@@H]1CC2(CCN(c3cc(O[C@H](c4ccc(Cl)cc4)C(F)(F)F)nc(N)n3)CC2)CN1	–	inactive	–
Nc1nc(O[C@H](c2ccc(Cl)cc2-c2cccc(C(F)(F)F)c2)C(F)(F)F)cc(N2CCC3(CC2)CN[C@H](C(=O)O)C3)n1	21	–	Drug metabolism [8]: Metabolite_Detected
Nc1nc(O[C@H](c2ccc(Cl)cc2-c2cccnc2)C(F)(F)F)cc(N2CCC3(CC2)CN[C@H](C(=O)O)C3)n1	65	–	–
CCOC(=O)[C@@H]1CC2(CCN(c3cc(O[C@H](c4ccc(-c5ccc6c(cnn6C)c5)cc4)C(F)(F)F)nc(N)n3)CC2)CN1	–	inactive	–
Nc1nc(O[C@H](c2ccc(Cl)cc2-c2cc(F)cc(Cl)c2)C(F)(F)F)cc(N2CCC3(CC2)CN[C@H](C(=O)O)C3)n1	35	–	–
CCOC(=O)[C@@H]1CC2(CCN(c3cc(O[C@H](c4ccc(-c5ccc6[nH]ncc6c5)cc4)C(F)(F)F)nc(N)n3)CC2)CN1	–	inactive	–
Nc1nc(O[C@H](c2ccc(Cl)cc2-n2ccc(COS(=O)(=O)O)n2)C(F)(F)F)cc(N2CCC3(CC2)CNC(C(=O)O)C3)n1 (some centres undefined)	–	–	Drug metabolism [4]: Metabolite_Detected
CS(=O)(=O)Nc1cccc(-c2cc(Cl)ccc2[C@@H](Oc2cc(N3CCC4(CC3)CN[C@H](C(=O)O)C4)nc(N)n2)C(F)(F)F)c1	51	–	–
CCOC(=O)[C@@H]1CC2(CCN(c3cc(O[C@H](c4ccc(-c5ccc6c(c5)CCC(=O)N6)cc4)C(F)(F)F)nc(N)n3)CC2)CN1	–	inactive	–
Cc1cc(-c2cc(Cl)ccc2[C@@H](Oc2cc(N3CCC4(CC3)CN[C@H](C(=O)O)C4)nc(N)n2)C(F)(F)F)ccc1Cl	62	–	–

Second part, led by results:

IC50 [1] [nM]	Compound	inhibition [3]	other results
28	Nc1nc(O[C@H](c2ccc(-c3ccc4c(c3)CCC(=O)N4)cc2)C(F)(F)F)cc(N2CCC3(CC2)CN[C@H](C(=O)O)C3)n1	inactive	–
40	Nc1nc(O[C@H](c2ccc(-c3ccc4ncc(F)cc4c3)cc2)C(F)(F)F)cc(N2CCC3(CC2)CN[C@H](C(=O)O)C3)n1	inactive	–
25	Nc1nc(O[C@H](c2ccc(-c3ccc4cnccc4c3)cc2)C(F)(F)F)cc(N2CCC3(CC2)CN[C@H](C(=O)O)C3)n1	inactive	–
23	COc1ccc(-c2ccc([C@@H](Oc3cc(N4CCC5(CC4)CN[C@H](C(=O)O)C5)nc(N)n3)C(F)(F)F)c(-n3ccc(C)n3)c2)cc1	–	–
30	Cn1ncc2cc(-c3ccc([C@@H](Oc4cc(N5CCC6(CC5)CN[C@H](C(=O)O)C6)nc(N)n4)C(F)(F)F)cc3)ccc21	inactive	–
26	CSc1ccc2cc(-c3ccc([C@@H](Oc4cc(N5CCC6(CC5)CN[C@H](C(=O)O)C6)nc(N)n4)C(F)(F)F)cc3)ccc2n1	inactive	–
1130	Nc1nc(O[C@H](c2ccc(Cl)cc2-c2ccc(S(N)(=O)=O)cc2)C(F)(F)F)cc(N2CCC3(CC2)CN[C@H](C(=O)O)C3)n1	–	–
39	CN1CCc2cc(-c3ccc([C@@H](Oc4cc(N5CCC6(CC5)CN[C@H](C(=O)O)C6)nc(N)n4)C(F)(F)F)cc3)ccc2C1=O	inactive	–
32	Cc1nn(C)c2cc(-c3ccc([C@@H](Oc4cc(N5CCC6(CC5)CN[C@H](C(=O)O)C6)nc(N)n4)C(F)(F)F)cc3)ccc12	inactive	–
460	Nc1nc(O[C@H](c2ccc(Cl)cc2)C(F)(F)F)cc(N2CCC3(CC2)CN[C@H](C(=O)O)C3)n1	inactive	–
37	Cc1c2ccc(-c3ccc([C@@H](Oc4cc(N5CCC6(CC5)CN[C@H](C(=O)O)C6)nc(N)n4)C(F)(F)F)cc3)cc2nn1C	inactive	–
885	CS(=O)(=O)c1ccc(-c2cc(Cl)ccc2[C@@H](Oc2cc(N3CCC4(CC3)CN[C@H](C(=O)O)C4)nc(N)n2)C(F)(F)F)cc1	–	–
73	Cc1cccc(-c2cc(Cl)ccc2[C@@H](Oc2cc(N3CCC4(CC3)CN[C@H](C(=O)O)C4)nc(N)n2)C(F)(F)F)n1	–	–
22	Cc1ccn(-c2cc(-c3ccc(Cl)c(Cl)c3)ccc2[C@@H](Oc2cc(N3CCC4(CC3)CN[C@H](C(=O)O)C4)nc(N)n2)C(F)(F)F)n1	–	–
32	Nc1nc(O[C@H](c2ccc(-c3ccc4[nH]ncc4c3)cc2)C(F)(F)F)cc(N2CCC3(CC2)CN[C@H](C(=O)O)C3)n1	inactive	–
53	Nc1nc(O[C@H](c2ccc(Cl)cc2-c2ccc(Cl)cc2)C(F)(F)F)cc(N2CCC3(CC2)CN[C@H](C(=O)O)C3)n1	–	–
